Measurements from US11505575B2, “Cyclic polypeptides for PCSK9 inhibition” (Merck Sharp & Dohme LLC, priority 2018, dated 2022).
pIC50: −log10 of the molar value. *1 amine or outer side, *2 acyl side, *3 side chain or, on linkers, in order; H or OH if unused. Where a SMILES comes first, the peptide text is derived from it. Bridges are numbered along the chain shown (N, C = ends). [ ]: non-standard residue; d: D form. Trp(7-aza) = N[C@@H](Cc1c[nH]c2ncccc12)C(=O)O; X7 = O=C([C@H](Cc1cc[nH]c1)N[*:1])[*:2]; mXylylene = c1cc(C[*:1])cc(C[*:2])c1; Tle = CC(C)(C)[C@H](N)C(=O)O; αMeV = CC(C)[C@](C)(N)C(=O)O; hLys = NCCCCC[C@H](N)C(=O)O; αMeP = C[C@@]1(C(=O)O)CCCN1; hSer = N[C@@H](CCO)C(=O)O; Nva = CCC[C@H](N)C(=O)O; Aib = CC(C)(N)C(=O)O; Mpa = O=C(O)CCS

What follows are compounds tested against human PCSK9 / human LDLR EGFa domain interaction (Homo sapiens, UniProt Q8NBP7) (assay: TR-FRET assay of inhibition of the PCSK9-LDLR protein-protein interaction). Conditions: 20 nM biotinylated human PCSK9 + 20 nM his-tagged human LDLR EGFa domain, 2 hours room temperature.
Format: binding
Description: A time-resolved fluorescence resonance energy (TR-FRET) assay was used to measure inhibition of the PCSK9-LDLR protein-protein interaction. Briefly, 20 nM avitag-biotinylated human PCSK9 was incubated with 20 nM his-tagged human LDLR EGFa domain in the presence of 5 nM LANCE Ulight Streptavidin (Perkin Elmer) and 5 nM europium-Anti-6×His (Perkin Elmer) for 2 hours covered at room temperature in buffer containing 50 mM HEPES, 150 mM NaCl, 5 mM CaCl2, 0.01% BSA and 0.01% Surfactant P20. Compounds were tested in dose-response and concentrations giving half-maximal inhibition calculated using a 4-parameter fit equation.

Chain of human PCSK9 / human LDLR EGFa domain interaction (Q8NBP7 153-692): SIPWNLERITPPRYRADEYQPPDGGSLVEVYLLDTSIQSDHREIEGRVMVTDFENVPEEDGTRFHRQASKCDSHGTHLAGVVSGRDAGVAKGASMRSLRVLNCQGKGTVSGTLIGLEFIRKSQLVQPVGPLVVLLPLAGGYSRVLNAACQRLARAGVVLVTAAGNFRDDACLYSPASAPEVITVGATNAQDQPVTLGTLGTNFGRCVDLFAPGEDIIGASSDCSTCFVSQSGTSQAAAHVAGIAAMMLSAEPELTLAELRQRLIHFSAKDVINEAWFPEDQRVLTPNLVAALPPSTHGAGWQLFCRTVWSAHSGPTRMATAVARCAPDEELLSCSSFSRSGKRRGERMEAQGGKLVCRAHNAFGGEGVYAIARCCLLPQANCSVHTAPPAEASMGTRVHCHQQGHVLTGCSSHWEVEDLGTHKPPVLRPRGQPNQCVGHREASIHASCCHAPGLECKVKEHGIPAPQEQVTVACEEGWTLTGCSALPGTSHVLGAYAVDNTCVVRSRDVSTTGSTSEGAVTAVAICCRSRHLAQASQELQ
Chain of human PCSK9 / human LDLR EGFa domain interaction (Q8NBP7 31-152 partner limits assumed): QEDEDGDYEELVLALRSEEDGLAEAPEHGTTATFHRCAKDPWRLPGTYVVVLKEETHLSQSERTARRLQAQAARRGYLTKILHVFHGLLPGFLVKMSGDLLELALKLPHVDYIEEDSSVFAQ

pIC50	SMILES
6.00 to 7.00	CC(C)[C@]1(C)NC(=O)[C@H](Cc2ccc(O)cc2)NC(=O)[C@H](CCC(=O)O)NC(=O)C(C)(C)NC(=O)[C@H](Cc2c[nH]c3ncccc23)NC(=O)[C@H]([C@@H](C)O)NC(=O)[C@H](CCCCN)NC(=O)[C@H](Cc2ccc(O)cc2)NC(=O)[C@H](C(C)(C)C)NC(=O)CCSCc2cccc(c2)CSC[C@@H](C(N)=O)NC(=O)[C@H]([C@@H](C)O)NC1=O [Compound 063] ([Mpa][Tle]YKT[Trp(7-aza)][Aib]EY[αMeV]TC-NH2; linker 1-12 via mXylylene)
6.00 to 7.00	CC(C)[C@]1(C)NC(=O)[C@H](Cc2ccc(O)cc2)NC(=O)[C@H](CCC(=O)O)NC(=O)C(C)(C)NC(=O)[C@H](Cc2c[nH]c3ncccc23)NC(=O)[C@H]([C@@H](C)O)NC(=O)[C@H](CCCCN)NC(=O)[C@H](Cc2ccc(O)cc2)NC(=O)[C@H](C(C)(C)C)NC(=O)CCSCc2cccc(c2)CSC[C@H](C(N)=O)NC(=O)[C@H]([C@@H](C)O)NC1=O [Compound 077] ([Mpa][Tle]YKT[Trp(7-aza)][Aib]EY[αMeV]T[dC]-NH2; linker 1-12 via mXylylene)

More lines, now with the values behind:

SMILES	pIC50
CCC[C@@H]1NC(=O)[C@H](Cc2c[nH]c3ncccc23)NC(=O)[C@H]([C@@H](C)O)NC(=O)[C@H](CCCCCN)NC(=O)[C@H](Cc2ccc(O)cc2)NC(=O)[C@H](C(C)(C)C)NC(=O)CCSCc2cccc(c2)CSC[C@@H](C(N)=O)NC(=O)[C@H]([C@@H](C)O)NC(=O)[C@H](CCC)NC(=O)[C@H](Cc2ccc(O)cc2)NC(=O)[C@H](CCC(=O)O)NC1=O [Compound 062] ([Mpa][Tle]Y[hLys]T[Trp(7-aza)][Nva]EY[Nva]TC-NH2; linker 1-12 via mXylylene)	6.00 to 7.00
CCC[C@@H]1NC(=O)[C@H](Cc2c[nH]c3ncccc23)NC(=O)[C@H]([C@@H](C)O)NC(=O)[C@H](Cc2cnc[nH]2)NC(=O)[C@H](Cc2ccc(O)cc2)NC(=O)[C@H](C(C)(C)C)NC(=O)CCSCc2cccc(c2)CSC[C@@H](C(N)=O)NC(=O)[C@H]([C@@H](C)O)NC(=O)[C@H](CCO)NC(=O)[C@H](Cc2ccc(O)cc2)NC(=O)[C@H](CCC(=O)O)NC1=O [Compound 072] ([Mpa][Tle]YHT[Trp(7-aza)][Nva]EY[hSer]TC-NH2; linker 1-12 via mXylylene)	6.00 to 7.00
CCC[C@@H]1NC(=O)[C@H](Cc2ccc(O)cc2)NC(=O)[C@H](CCC(=O)O)NC(=O)[C@H](CCC)NC(=O)[C@H](Cc2c[nH]c3ncccc23)NC(=O)[C@H]([C@@H](C)O)NC(=O)[C@H](Cc2cnc[nH]2)NC(=O)[C@H](Cc2ccc(O)cc2)NC(=O)[C@H](C(C)(C)C)NC(=O)CCSCc2cccc(c2)CSC[C@@H](C(N)=O)NC(=O)[C@H](CCO)NC1=O [Compound 074] ([Mpa][Tle]YHT[Trp(7-aza)][Nva]EY[Nva][hSer]C-NH2; linker 1-12 via mXylylene)	6.00 to 7.00
CCC[C@@H]1NC(=O)[C@H](Cc2c[nH]c3ncccc23)NC(=O)[C@H]([C@@H](C)O)NC(=O)[C@H](Cc2c[nH]cn2)NC(=O)[C@H](Cc2ccc(O)cc2)NC(=O)[C@H](C(C)(C)C)NC(=O)CCSCc2cccc(c2)CSC[C@@H](C(N)=O)NC(=O)[C@H]([C@@H](C)O)NC(=O)[C@]2(C)CCCN2C(=O)[C@H](Cc2ccc(O)cc2)NC(=O)[C@H](CCC(=O)O)NC1=O [Compound 075] ([Mpa][Tle]YHT[Trp(7-aza)][Nva]EY[αMeP]TC-NH2; linker 1-12 via mXylylene)	6.00 to 7.00
CCC[C@@H]1NC(=O)[C@H](Cc2c[nH]c3ncccc23)NC(=O)[C@H]([C@@H](C)O)NC(=O)[C@H](Cc2cc[nH]c2)NC(=O)[C@H](Cc2ccc(O)cc2)NC(=O)[C@H](C(C)(C)C)NC(=O)CCSCc2cccc(c2)CSC[C@@H](C(N)=O)NC(=O)[C@]2(C)CCCN2C(=O)[C@H](Cc2ccc(O)cc2)NC(=O)[C@H](CCC(=O)O)NC1=O [Compound 076] ([Mpa][Tle]Y[X7]T[Trp(7-aza)][Nva]EY[αMeP]C-NH2; linker 1-11 via mXylylene)	6.00 to 7.00
